Converted amounts (≈) assume the structure as drawn. Read-outs that look alike come from different tables or passages of the source.
Tests used:
SREBP pathway = assay: SREBP luciferase reporter gene system (SRE-luciferase assay); format: cell-based, human; settings: Huh-7/SRE-luc cells, sterol-deficient medium, 0.01-10 µM
Outline: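 Readout was SRE-driven luciferase normalised to GFP fluorescence in lysates of stably transfected Huh-7/SRE-luc hepatoma cells. Compounds (0.01, 0.03, 0.1, 0.3, 1.0, 3.0, 10 µM; DMSO control) were applied for 16 h in sterol-depleted medium with 2 µM lovastatin and 10 µM mevalonate; IC50 from variable-slope fit.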

[1] = Solubility in fasted-state simulated intestinal fluid (FaSSIF); format: physicochemical; settings: FaSSIF, pH 6.5, fassif, kinetic from dmso stock, FaSSIF pH 6.5, 300 µM sample solution, room temperature
Description: Compound powder was dissolved in DMSO to prepare a 10.0 mM stock solution for later use. 0.021 g NaOH, 0.198 g NaH2PO4, and 0.309 g NaCl were weighed and added to 50.0 mL of ultrapure water. After thorough mixing, the pH was adjusted to 6.5 using HCl or NaOH. Then, 0.112 g of FaSSIF powder was added. After complete dissolution, the solution was allowed to stand at room temperature for 2 hours for later use. A certain volume of the compound stock solution was added to a certain volume of FaSSIF to prepare a 300 µM sample solution, which was mixed at room temperature under 1000 rpm for 1 hour. After 1 hour, the sample was centrifuged, and a certain volume of supernatant was taken. The termination solution was added to precipitate the sample, which was then thoroughly mixed and centrifuged for 20 minutes. The supernatant was then taken again, diluted with dilution solution, and then analyzed by liquid chromatography-tandem mass spectrometry (LC-MS/MS). The concentration of the test compound in the samples was quantitatively determined using LC-MS/MS. Table 3: FaSSIF solubility results of compounds from some examples

[2] = test system: Fatty Acid Synthase (FASN) gene; assay: Inhibition of FASN gene expression (qPCR) in Huh-7 cells; format: cell-based, human; settings: Huh-7 cells, starvation medium, 16 hours, qPCR, class symbols, read-out: FASN IC50
Outline: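 IC50 derived by four-parameter fit of FASN expression inhibition versus DMSO, measured by RT-qPCR. Compound exposure lasted 16 h at five 3-fold concentrations from 3000 nM, applied to Huh-7 cells in sterol-depleting medium with 5% LPDS, 2 µM lovastatin and 10 µM mevalonate.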

Compound `COc1cc(OC)c([C@@H](O)CCC[C@@H](C)[C@H]2CC[C@H]3[C@H]4[C@H](CC[C@]23C)[C@@]2(C)CC[C@H](O)[C@H](O)[C@@H]2CC4(F)F)c(F)n1` (single isomer, unassigned) [Compound 236] has an IC50 (SREBP pathway; Homo sapiens, Huh-7, 16 h) of 0.079 µM and a solubility at 1 h [1] of 305 µM (≈ 178 µg/mL).
`C[C@H](CCCC(O)c1nccn1C)[C@H]1CC[C@H]2[C@H]3[C@H](CC[C@]12C)[C@@]1(C)CC[C@H](O)[C@H](O)[C@@H]1CC3(F)F` (stereo partly drawn) [Compound 223, (1R,3aS,3bS,5aR,6R,7 S,9aR,9bS,11aR)-4,4-Difluoro-1-[(2R)-6-hydroxy-6-(3-methylimidazol-2-yl)hexan-2-yl]-9a,11a-dimethylhexadecahydro-1H-cyclopenta[1,2-a]phenanthrene-6,7-diol] showed an IC50 (SREBP pathway; Homo sapiens, Huh-7, 16 h) of 0.093 µM and a solubility at 1 h [1] of 305 µM (≈ 155 µg/mL).
With `C[C@H](CCCC(O)c1cncc2c1OC(F)(F)O2)[C@H]1CC[C@H]2[C@H]3[C@H](CC[C@]12C)[C@@]1(C)CC[C@H](O)[C@H](O)[C@@H]1CC3(F)F` (stereo partly drawn) [Compound 297, (1R,3aS,3bS,5aR,6R,7 S,9aR,9bS,11aR)-1-[(2R)-6-(2,2-Difluoro[1,3]dioxolo[4,5-c]pyridin-7-yl)-6-hydroxyhexan-2-yl]-4,4-difluoro-9a,11a-dimethylhexadecahydro-1H-cyclopenta[1,2-a]phenanthrene-6,7-diol] the IC50 (SREBP pathway; Homo sapiens, Huh-7, 16 h) was 0.197 µM and the solubility at 1 h [1] was 19.5 µM (≈ 11.4 µg/mL).
Work on `COc1cc(F)c([C@H](O)CCC[C@@H](C)[C@H]2CC[C@H]3[C@H]4[C@H](CC[C@]23C)[C@@]2(C)CC[C@H](O)[C@H](O)[C@@H]2CC4(F)F)c(F)n1` (single isomer, unassigned) [Compound 240] yielded an IC50 (SREBP pathway; Homo sapiens, Huh-7, 16 h) of 0.042 µM and a solubility at 1 h [1] of 146 µM (≈ 83.4 µg/mL).
In the case of `C[C@H](CCCC(O)c1ccc(F)nc1F)[C@H]1CC[C@H]2[C@H]3[C@H](CC[C@]12C)[C@@]1(C)CC[C@H](O)[C@H](O)[C@@H]1CC3(F)F` (single isomer, unassigned) [Compound 227, (1R,3aS,3bS,5aR,6R,7S,9aR,9bS,11aR)-1-[(2R,6R)-6-(2,6-difluoropyridin-3-yl)-6-hydroxyhexan-2-yl]-4,4-difluoro-9a,11a-dimethylhexadecahydro-1H-cyclopenta[1,2-a]phenanthrene-6,7-diol or (1R,3aS,3bS,5aR,6R,7S,9aR,9bS,11aR)-1-[(2R,6S)-6-(2,6-difluoropyridin-3-yl)-6-hydroxyhexan-2-yl]-4,4-difluoro-9a,11a-dimethylhexadecahydro-1H-cyclopenta[1,2-a]phenanthrene-6,7-diol], the IC50 (SREBP pathway; 16 hours) is reported as 0.014 µM and the IC50 ([2]; Homo sapiens, Huh-7, 16 h) is reported as 200 to 500 nM.
With `C[C@H](CCCC(O)c1nnnn1C)[C@H]1CC[C@H]2[C@H]3[C@H](CC[C@]12C)[C@@]1(C)CC[C@H](O)C[C@@H]1CC3(F)F` (stereo partly drawn) [Compound 373, (1R,3aS,3bR,5aR,7S,9aS,9bS,11aR)-4,4-difluoro-1-[(2R)-6-hydroxy-6-(1-methyl-1,2,3,4-tetrazol-5-yl)hexan-2-yl]-9a,11a-dimethylhexadecahydro-1H-cyclopenta[1,2-a]phenanthren-7-ol] the IC50 (SREBP pathway; Homo sapiens, Huh-7, 16 h) was 0.078 µM and the IC50 ([2]; Homo sapiens, Huh-7, 16 h) was < 200 nM.
`C[C@H](CCCC(O)c1cccc2c1OC(F)(F)O2)[C@H]1CC[C@H]2[C@H]3[C@H](CC[C@]12C)[C@@]1(C)CC[C@H](O)[C@H](O)[C@@H]1CC3(F)F` (single isomer, unassigned) [Compound 194, (1R,3aS,3bS,5aR,6R,7S,9aR,9bS,11aR)-1-[(2R,6S)-6-(2,2-difluorobenzo[d][1,3]dioxol-4-yl)-6-hydroxyhexan-2-yl]-4,4-difluoro-9a,11a-dimethylhexadecahydro-1H-cyclopenta[1,2-a]phenanthrene-6,7-diol or (1R,3aS,3bS,5aR,6R,7S,9aR,9bS,11aR)-1-[(2R,6R)-6-(2,2-difluorobenzo[d][1,3]dioxol-4-yl)-6-hydroxyhexan-2-yl]-4,4-difluoro-9a,11a-dimethylhexadecahydro-1H-cyclopenta[1,2-a]phenanthrene-6,7-diol] showed an IC50 (SREBP pathway; Homo sapiens, Huh-7, 16 h) of 0.102 µM and an IC50 ([2]; Homo sapiens, Huh-7, 16 h) of 200 to 500 nM.
`COc1cc(F)cc(F)c1C(O)CCC[C@@H](C)[C@H]1CC[C@H]2C3CC[C@H]4[C@@H](O)[C@@H](O)CC[C@]4(C)[C@H]3CC[C@]12C` (stereo in doubt) [Compound 104, (1R,3aS,5aR,6R,7S,9aR,9bS,11aR)-1-[(2R)-6-(2,4-Difluoro-6-methoxyphenyl)-6-hydroxyhexan-2-yl]-9a,11a-dimethylhexadecahydro-1H-cyclopenta[1,2-a]phenanthrene-6,7-diol] gave an IC50 (SREBP pathway; Homo sapiens, Huh-7, 16 h) of 0.25 µM and an IC50 ([2]; Homo sapiens, Huh-7, 16 h) of 200 to 500 nM.
For `COc1nc(F)cc(F)c1C(O)CCC[C@@H](C)[C@H]1CC[C@H]2[C@H]3[C@H](CC[C@]12C)[C@@]1(C)CC[C@H](O)[C@H](O)[C@@H]1CC3(F)F` (stereo partly drawn) [Compound 206, (1R,3aS,3bS,5aR,6R,7S,9aR,9bS,11aR)-1-[(2R)-6-(4,6-difluoro-2-methoxypyridin-3-yl)-6-hydroxyhexan-2-yl]-4,4-difluoro-9a,11a-dimethylhexadecahydro-1H-cyclopenta[1,2-a]phenanthrene-6,7-diol], the IC50 (SREBP pathway; Homo sapiens, Huh-7, 16 h) was 0.145 µM and the IC50 ([2]; Homo sapiens, Huh-7, 16 h) was 200 to 500 nM.
For `COc1ncccc1C(O)CCC[C@@H](C)[C@H]1CC[C@H]2[C@H]3[C@H](CC[C@]12C)[C@@]1(C)CC[C@H](O)[C@H](O)[C@@H]1CC3(F)F` (single isomer, unassigned) [Compound 192, (1R,3aS,3bS,5aR,6R,7S,9aR,9bS,11aR)-4,4-difluoro-1-[(2R,6S)-6-hydroxy-6-(^2-methoxypyridin-3-yl)hexan-2-yl]-9a,11a-dimethylhexadecahydro-1H-cyclopenta[1,2-a]phenanthrene-6,7-diol or (1R,3aS,3bS,5aR,6R,7S,9aR,9bS,11aR)-4,4-difluoro-1-[(2R,6R)-6-hydroxy-6-(2-methoxypyridin-3-yl)hexan-2-yl]-9a,11a-dimethylhexadecahydro-1H-cyclopenta[1,2-a]phenanthrene-6,7-diol], the IC50 (SREBP pathway; Homo sapiens, Huh-7, 16 h) was 0.053 µM and the IC50 ([2]; Homo sapiens, Huh-7, 16 h) was 200 to 500 nM.
For `COc1ccnc(F)c1[C@H](O)CCC[C@@H](C)[C@H]1CC[C@H]2[C@H]3[C@H](CC[C@]12C)[C@@]1(C)CC[C@H](O)[C@H](O)[C@@H]1CC3(F)F` (single isomer, unassigned) [Compound 230], the IC50 (SREBP pathway; Homo sapiens, Huh-7, 16 h) was 0.062 µM and the IC50 ([2]; Homo sapiens, Huh-7, 16 h) was < 200 nM.
Work on `COc1ncccc1C(O)CCC[C@@H](C)[C@H]1CC[C@H]2[C@H]3[C@H](CC[C@]12C)[C@@]1(C)CC[C@H](O)[C@H](O)[C@@H]1CC3(F)F` (single isomer, unassigned) [Compound 193, (1R,3aS,3bS,5aR,6R,7S,9aR,9bS,11aR)-4,4-difluoro-1-[(2R,6R)-6-hydroxy-6-(2-methoxypyridin-3-yl)hexan-2-yl]-9a,11a-dimethylhexadecahydro-1H-cyclopenta[1,2-a]phenanthrene-6,7-diol or (1R,3aS,3bS,5aR,6R,7S,9aR,9bS,11aR)-4,4-difluoro-1-[(2R,6S)-6-hydroxy-6-(2-methoxypyridin-3-yl)hexan-2-yl]-9a,11a-dimethylhexadecahydro-1H-cyclopenta[1,2-a]phenanthrene-6,7-diol] yielded an IC50 (SREBP pathway; 16 hours) of 0.072 µM and an IC50 [2] of 200 to 500 nM.
Compound `COc1ccc(C(O)CCC[C@@H](C)[C@H]2CC[C@H]3C4=C(F)C[C@H]5[C@@H](O)[C@@H](O)CC[C@]5(C)[C@H]4CC[C@]23C)c(F)c1` (stereo partly drawn) [Compound 68, (1R,3aR,5aR,6R,7S,9aR,9bR,11aR)-4-fluoro-1-[(2R)-6-(2-fluoro-4-methoxyphenyl)-6-hydroxyhexan-2-yl]-9a,11a-dimethyl-2,3,3a,5,5a,6,7,8,9,9a,9b,10,11,11a-tetradecahydro-1H-cyclopenta[1,2-a]phenanthrene-6,7-diol] has an IC50 (SREBP pathway; Homo sapiens, Huh-7, 16 h) of 0.434 µM and an IC50 ([2]; Homo sapiens, Huh-7, 16 h) of 200 to 500 nM.
For `C[C@H](CCCC(O)c1cccc(OC(F)(F)F)c1)[C@H]1CC[C@H]2[C@H]3[C@H](CC[C@]12C)[C@@]1(C)CC[C@H](O)[C@H](O)[C@@H]1CC3(F)F` (single isomer, unassigned) [Compound 191, (1R,3aS,3bS,5aR,6R,7S,9aR,9bS,11aR)-4,4-difluoro-1-[(2R,6R)-6-hydroxy-6-{3-[(trifluoromethyl)oxy]phenyl}hexan-2-yl]-9a,11a-dimethylhexadecahydro-1H-cyclopenta[1,2-a]phenanthrene-6,7-diol or (1R,3aS,3bS,5aR,6R,7S,9aR,9bS,11aR)-4,4-difluoro-1-[(2R,6S)-6-hydroxy-6-(2-methoxypyridin-3-yl)hexan-2-yl]-9a,11a-dimethylhexadecahydro-1H-cyclopenta[1,2-a]phenanthrene-6,7-diol], the IC50 (SREBP pathway; 16 hours) was 0.246 µM and the IC50 ([2]; Homo sapiens, Huh-7, 16 h) was 200 to 500 nM.

Reference: patent EP4752152A1, “STEROID COMPOUND, AND PREPARATION METHOD THEREFOR AND USE THEREOF” (Cholesgen (Shanghai) Co.Ltd., priority 2023, dated 2025)
